Experimental data taken from ChEMBL document CHEMBL1130990, “High-throughput synthesis and direct screening for the discovery of novel hydrolytic metal complexes” (Bioorg Med Chem Lett, 1998).

Experiments:
[1] = Compound was evaluated for rate enhancement, obtained in the hydrolysis of para-nitrophenyl acetate (Ko = 1.6 x 10 e-4/min); ratio=Kobs/K0; type: ADME
[2] = Compound was evaluated for rate enhancement, obtained in the hydrolysis of N-methoxycarbonyl-L-phenylalanine-p-nitrophenylester (Ko = 1.1 x 10 e-3/min); ratio=Kobs/K0; type: ADME

Row | SMILES | Ratio [1] | Ratio [2]
1 | [O-][Cl+3]([O-])([O-])[O][Zn][O][Cl+3]([O-])([O-])[O-].c1ccc2c(c1)CNCCNCCNCc1ccccc1OCC(Oc1ccc3ccccc3c1)CO2 | 2.9 | 4.7
2 | OC1COc2ccccc2CNCCNCCNCc2ccccc2OC1.[O-][Cl+3]([O-])([O-])[O][Zn][O][Cl+3]([O-])([O-])[O-] | 1.7 | 2.9
3 | COC1COc2ccccc2CNCCNCCNCc2ccccc2OC1.[O-][Cl+3]([O-])([O-])[O][Zn][O][Cl+3]([O-])([O-])[O-] | 2.4 | 3
4 | [O-][Cl+3]([O-])([O-])[O][Zn][O][Cl+3]([O-])([O-])[O-].c1ccc(OC2COc3ccccc3CNCCNCCNCc3ccccc3OC2)cc1 | 2.5 | 3.9
